≈ marks a conversion by molar mass, not a printed value.
Tests used:
[1] = test system: Candida kefyr ATCC 2512; experiment: Minimum biofilm eradication assay; type: cell-based; details: Kluyveromyces marxianus, ATCC2512, 48 h, read-out: MBEC
Procedure: (§1) We tested the susceptibility of different bacterial and yeast strains to compounds 5a–f by determining the minimum biofilm eradication concentration (MBEC). The test was performed in a sterile 96-well flat-bottom plastic tissue culture plate (TPP, Switzerland). Each well was filled with 100 µl of bacterial (10^7 CFUs/ml) or yeast (5 × 10^6 CFUs/ml) suspension. When the possibility of inhibition of yeast biofilm formation was tested, the wells were pre-treated with FBS (250 µl per well). Negative controls contained broth only. Positive controls were performed using standard antibacterial and antifungal drugs gentamycin and amphotericin B, respectively. The plates were covered and incubated aerobically for 24 h (bacteria) or 48 h (yeast) at 37 °C. Following the incubation period, each well was aspirated and washed three times with 250 µl of PBS and vigorously shaken in order to remove all non-adherent bacteria/yeast. The remaining attached cells were fixed with methanol (15 min) and the plates were left to dry overnight. The formed biofilm was stained with crystal violet (1%, 5 min). Excess stain was rinsed by placing the plate under running tap water and the plates were left to dry for 24 h. Adherent cells were resolubilized with acetic acid (33%, v/v). The optical density of each well was measured at 570 nm using a Multiscan plate reader. The MBEC value represents the lowest compound dilution at which microorganisms fail to grow.

[2] = test system: Escherichia coli ATCC 10536; experiment: Minimum biofilm eradication assay; type: cell-based
Procedure: as §1

[3] = test system: Candida albicans ATCC 90028; experiment: Minimum biofilm eradication assay; type: cell-based; details: ATCC90028, 48 h, read-out: MBEC
Procedure: as §1

[4] = test system: Pseudomonas aeruginosa ATCC 27853; experiment: Minimum biofilm eradication assay; type: cell-based
Procedure: as §1

[5] = test system: Candida krusei ATCC 14243; experiment: Minimum biofilm eradication assay; type: cell-based; details: Pichia kudriavzevii, ATCC14243, 48 h, read-out: MBEC
Procedure: as §1

[6] = test system: Pseudomonas aeruginosa ATCC 9027; experiment: Minimum biofilm eradication assay; type: cell-based
Procedure: as §1

[7] = test system: Candida parapsylosis ATCC 22019; experiment: Minimum biofilm eradication assay; type: cell-based
Procedure: as §1

[8] = test system: Enterococcus faecalis ATCC 29212; experiment: Minimum biofilm eradication assay; type: cell-based
Procedure: as §1

[9] = test system: Candida tropicalis ATCC 750; experiment: Minimum biofilm eradication assay; type: cell-based; details: ATCC750, 48 h, read-out: MBEC
Procedure: as §1

[10] = test system: Staphylococcus aureus ATCC 6538; experiment: Minimum biofilm eradication assay; type: cell-based
Procedure: as §1

[11] = test system: Candida albicans ATCC 10231; experiment: Minimum biofilm eradication assay; type: cell-based; details: ATCC10231, 48 h, read-out: MBEC
Procedure: as §1

[12] = test system: Escherichia coli ATCC 8739; experiment: Minimum biofilm eradication assay; type: cell-based
Procedure: as §1

[13] = test system: Staphylococcus aureus ATCC 25213; experiment: Minimum biofilm eradication assay; type: cell-based
Procedure: as §1

[14] = test system: E. coli; experiment: MIC determination, E. coli as summarised in text; type: cell-based; details: Escherichia coli, both strains
Procedure: Before analysis, compounds 5a–f were dissolved in 96% ethanol in a concentration of 2 mg/ml as stock solutions. Inoculums were prepared with fresh cultures of microbial strains, cultured on tryptic-soy agar or Sabouraud 2% (m/v) dextrose agar for 18 h (48–72 h for fungi) at 30 °C with physiological saline containing approximately […]. Inoculum density (0.5 McFarland units) was adjusted with a bio Mériex (France) densitometer. Minimum inhibitory concentration (MIC) was determined by the twofold micro-dilution method in Mu¨ller–Hinton broth for bacterial strains and RPMI 1640 + 2% m/v dextrose for fungi according to the EUCAST recommendations in a sterile 96-well flat-bottom plastic tissue culture plate. MIC was determined using a linear regression curve after incubation of compounds and reading the optical density at 570 nm using an iEMS microplate reader. […] All tests were performed in triplicate and expressed as the mean.

[15] = In vitro haemolytic activity; type: cell-based; details: male, 4% (v/v) fresh human erythrocyte suspension, 4% human erythrocytes, read-out: Haemolysis (%)
Procedure: Then, 4% (v/v) of fresh human erythrocyte solution (hErc) was prepared using a PBS pH 7.0 solution. A series of diluted compounds from 200 to 50 µg/ml were prepared in a total volume of 1 ml with hErc solution. […] Absorbance of the supernatant (200 µl) was recorded at 540 nm using an iEMS microplate reader. The 0.1% (v/v) solution of Triton X100 served as a positive control (as total lysis of hErc), and intact hErc served as a negative control. […] All tests were performed in triplicate and the results were expressed as haemolysis percentage (mean ± SD). Percentage of haemolysis was calculated using the following equation: haemolysis %=Asample-Anc/Apc-Anc×100 where Asample was absorbance of the tested compound, Anc was absorbance of the negative control (intact hErc) and Apc was absorbance of the positive control treated with 0.1% TritonX100. In statistical calculations, p values below 0.05 were considered significant throughout the test. For comparison of mean values, one-way ANOVA with Dunnet’s post-test was used.

[16] = Inhibition of linoleic acid peroxidation (LP), AAPH-initiated; set-up: tested at 100 µM; details: 100 μΜ, 37 °C
Procedure: To initiate lipid peroxidation, the free radical AAPH was used[10]. The final solution in the UV cuvette consisted of 10 µl sodium linoleate solution (c = 16 mM) and 0.93 ml phosphate buffer pH 7.4 (c = 50 mM). Afterwards, 10 µl of the tested compound solution in DMSO (final concentration 0.1 mM) and 50 µl of AAPH solution (c = 40 mM) were added. The experiment was performed at 37 °C under air. Oxidation of linoleic acid sodium salt was monitored at 234 nm. The assay was repeated at least in triplicate and the standard deviation of absorbance was less than 10% of the mean. Trolox was used under the same experimental conditions as a reference compound.

Compound COc1cc(NC(C)CCCNC(=O)NC(C(=O)NC(c2ccccc2)c2ccc(Cl)cc2)c2ccc(Cl)cc2)c2ncccc2c1 (stereo not shown) [Compound 5e, 2–(4-chlorophenyl)-N-[(4-chlorophenyl)(phenyl)methyl]-2-[({4-[(6-methoxyquinolin-8-yl)amino]pentyl}carbamoyl)amino]acetamide] has a minimal effective concentration [1] of 6.25 µg/mL, an MBEC [2] of 50 µg/mL and a minimal effective concentration [3] of 25 µg/mL. For the same compound, the MBEC [4] was over 100 µg/mL, the minimal effective concentration [5] was over 100 µg/mL and the MBEC [6] was over 100 µg/mL. It also gave an MBEC [7] of over 100 µg/mL, an MBEC [8] of over 100 µg/mL and a minimal effective concentration [9] of over 100 µg/mL. It also gave an MBEC [10] of over 100 µg/mL, a minimal effective concentration [11] of 25 µg/mL and an MBEC [12] of 50 µg/mL. It also gave an MBEC [13] of over 100 µg/mL, a melting point of 150 to 151.5 °C and an MIC [14] of 45 to 60 µg/mL (≈ 67.1 to 89.5 µM). It also gave a hemolysis at 1 h, 50 µg/ml ([15]; pH 7, 50 μg/ml) of 2.78 ± 0.04%, a hemolysis at 1 h, 100 µg/ml ([15]; pH 7, 100 μg/ml) of 3.23 ± 0.05% and a hemolysis at 1 h, 200 µg/ml ([15]; pH 7, 200 μg/ml) of 3.7 ± 0.08%. For the same compound, the “LP inhibition (%) ± SD” value [16] was 80 ± 2.7%.

From article PMC6021035, “Insights into biological activity of ureidoamides with primaquine and amino acid moieties” (Journal of Enzyme Inhibition and Medicinal Chemistry, 2018)
